Assay results published in PubChem BioAssay AID248 (DTP/NCI, 2004).
Values joined by “and” are separate entries in the source; they are usually repeats but may differ in a detail not shown here. Equal entries are not always repeated. Toxic doses and inconclusive results are not listed. No stated cut-off is given here; in the data, active means T/C of 150% or more; inactive means T/C below 125%.

Tested on: L1210 leukemia ip in BDF1 mice, survival T/C
Experiment: NCI In Vivo Anticancer Drug Screen. Data for tumor model L1210 Leukemia (intraperitoneal) in B6D2F1 (BDF1) mice
Settings: endpoint: mean survival time, higher = longer survival
Summary of the method: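 Each compound was tested against a transplantable tumor grown in mice. The endpoint was survival, with treated animals benchmarked against vehicle controls as a simple ratio.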

[1] = dose: 100.0 mg/kg/injection, schedule: Q04DX003 (ip), vehicle: saline
[2] = dose: 200.0 mg/kg/injection, schedule: Q04DX003 (ip), vehicle: saline
[3] = dose: 400.0 mg/kg/injection, schedule: Q04DX003 (ip), vehicle: saline
[4] = dose: 100.0 mg/kg/injection, schedule: Q01DX001 (ip), vehicle: saline
[5] = dose: 200.0 mg/kg/injection, schedule: Q01DX001 (ip), vehicle: saline
[6] = dose: 400.0 mg/kg/injection, schedule: Q01DX001 (ip), vehicle: saline
[7] = dose: 100.0 mg/kg/injection, schedule: Q04DX003 (ip), vehicle: Klucel (hydroxypropylcellulose) (HPC)
[8] = dose: 200.0 mg/kg/injection, schedule: Q04DX003 (ip), vehicle: Klucel (hydroxypropylcellulose) (HPC)
[9] = dose: 400.0 mg/kg/injection, schedule: Q04DX003 (ip), vehicle: Klucel (hydroxypropylcellulose) (HPC)
[10] = dose: 100.0 mg/kg/injection, schedule: Q01DX001 (ip), vehicle: carboxymethylcellulose (CMC)
[11] = dose: 200.0 mg/kg/injection, schedule: Q01DX001 (ip), vehicle: carboxymethylcellulose (CMC)
[12] = dose: 400.0 mg/kg/injection, schedule: Q01DX001 (ip), vehicle: carboxymethylcellulose (CMC)
[13] = dose: 100.0 mg/kg/injection, schedule: Q01DX009 (ip), vehicle: Klucel (hydroxypropylcellulose) (HPC)
[14] = dose: 200.0 mg/kg/injection, schedule: Q01DX009 (ip), vehicle: Klucel (hydroxypropylcellulose) (HPC)
[15] = dose: 400.0 mg/kg/injection, schedule: Q01DX009 (ip), vehicle: Klucel (hydroxypropylcellulose) (HPC)
[16] = dose: 100.0 mg/kg/injection, schedule: Q04DX002 (ip), vehicle: Klucel (hydroxypropylcellulose) (HPC)
[17] = dose: 200.0 mg/kg/injection, schedule: Q04DX002 (ip), vehicle: Klucel (hydroxypropylcellulose) (HPC)
[18] = dose: 400.0 mg/kg/injection, schedule: Q04DX002 (ip), vehicle: Klucel (hydroxypropylcellulose) (HPC)

Measured: T/C

O=C(CCN1CC1)OCCCCOC(=O)CCN1CC1
inactive: dose: 2.5 mg/kg/injection, schedule: Q01DX009 (ip), vehicle: saline 113 % of control | dose: 5.0 mg/kg/injection, schedule: Q01DX009 (ip), vehicle: saline 110 % of control | dose: 6.6 mg/kg/injection, schedule: Q01DX009 (ip), vehicle: saline 94 % of control and 102 % of control | dose: 10.0 mg/kg/injection, schedule: Q01DX009 (ip), vehicle: saline 102 % of control | dose: 15.0 mg/kg/injection, schedule: Q01DX009 (ip), vehicle: saline 100 % of control and 107 % of control | dose: 20.0 mg/kg/injection, schedule: Q01DX009 (ip), vehicle: saline 104 % of control | dose: 20.0 mg/kg/injection, schedule: Q04DX003 (ip), vehicle: saline 115 % of control | dose: 40.0 mg/kg/injection, schedule: Q04DX003 (ip), vehicle: saline 104 % of control | dose: 80.0 mg/kg/injection, schedule: Q04DX003 (ip), vehicle: saline 91 % of control

CC1(C)CC(=O)c2c(cc(OS(C)(=O)=O)cc2OS(C)(=O)=O)O1
inactive: dose: 3.12 mg/kg/injection, schedule: Q01DX009 (ip), vehicle: Klucel (hydroxypropylcellulose) (HPC) 90 % of control | dose: 6.25 mg/kg/injection, schedule: Q01DX009 (ip), vehicle: Klucel (hydroxypropylcellulose) (HPC) 97 % of control | dose: 12.5 mg/kg/injection, schedule: Q01DX009 (ip), vehicle: Klucel (hydroxypropylcellulose) (HPC) 94 % of control

CC(=O)C(=O)N1Cc2cc3ccccc3nc2C1
inactive: [1] 115 % of control | [2] 102 % of control | [3] 102 % of control

O=C(Nc1ccccc1C(=O)OCc1ccc([N+](=O)[O-])cc1)OCc1ccccc1
inactive: dose: 75.0 mg/kg/injection, schedule: Q04DX003 (ip), vehicle: saline 98 % of control | dose: 150.0 mg/kg/injection, schedule: Q04DX003 (ip), vehicle: saline 98 % of control | dose: 300.0 mg/kg/injection, schedule: Q04DX003 (ip), vehicle: saline 104 % of control

ClC1=C(Cl)C2(Cl)C3(Cl)C(Cl)=C(Cl)C(Cl)(C34OCCO4)C2(Cl)C12OCCO2 (stereo not given)
inactive: dose: 50.0 mg/kg/injection, schedule: Q01DX001 (ip), vehicle: saline 107 % of control | [4] 105 % of control | dose: 100.0 mg/kg/injection, schedule: Q01DX009 (ip), vehicle: saline 90 % of control | [1] 98 % of control | [5] 94 % of control | dose: 200.0 mg/kg/injection, schedule: Q01DX009 (ip), vehicle: saline 93 % of control | [2] 97 % of control | [6] 100 % of control | dose: 400.0 mg/kg/injection, schedule: Q01DX009 (ip), vehicle: saline 92 % of control | [3] 103 % of control

CCCCC(N)C(=O)O (stereo not given)
inactive: [7] 98 % of control | [8] 95 % of control | [9] 98 % of control

CCCCOc1ccc(C=Nc2ccc(CC)cc2)cc1
inactive: dose: 100.0 mg/kg/injection, schedule: Q01DX009 (ip), vehicle: saline with Tween-80 94 % of control | dose: 200.0 mg/kg/injection, schedule: Q01DX009 (ip), vehicle: saline with Tween-80 102 % of control | dose: 400.0 mg/kg/injection, schedule: Q01DX009 (ip), vehicle: saline with Tween-80 97 % of control

Cc1[nH]nc2c(=S)[nH]c(=O)[nH]c12
inactive: dose: 75.0 mg/kg/injection, schedule: Q01DX001 (ip), vehicle: saline 92 % of control | dose: 150.0 mg/kg/injection, schedule: Q01DX001 (ip), vehicle: saline 96 % of control

COC(=O)C(CCSC)NC(=O)C(C)NC(=O)c1cnc2ccccc2n1 (stereo not given)
inactive: [10] 91 % of control | [11] 94 % of control | [12] 98 % of control

[O-][n+]1c(C(Br)(Br)Br)ccc2ccccc21
inactive: dose: 50.0 mg/kg/injection, schedule: Q01DX009 (ip), vehicle: Klucel (hydroxypropylcellulose) (HPC) 97 % of control | [13] 95 % of control | [14] 106 % of control

CN(C)/C=N/NC(=O)C1CC1
inactive: [1] 100 % of control | [2] 97 % of control | [3] 107 % of control

CCCCCCCCCCCCCC(CCCCCCCCCCCC)CCCCCCCCCCCC
inactive: dose: 100.0 mg/kg/injection, schedule: Q01DX001 (ip), vehicle: saline with Tween-80 92 % of control | dose: 200.0 mg/kg/injection, schedule: Q01DX001 (ip), vehicle: saline with Tween-80 87 % of control | dose: 400.0 mg/kg/injection, schedule: Q01DX001 (ip), vehicle: saline with Tween-80 87 % of control

[I][Bi]([I])[I]
inactive: dose: 50.0 mg/kg/injection, schedule: Q01DX001 (ip), vehicle: carboxymethylcellulose (CMC) 114 % of control | [10] 105 % of control | [4] 108 % of control | [11] 102 % of control | [5] 94 % of control | [6] 97 % of control

CCOc1ccccc1NC(=S)NC(=O)c1cccc([N+](=O)[O-])c1
inactive: [13] 100 % of control | [7] 98 % of control | [14] 96 % of control | [8] 98 % of control | [15] 96 % of control | [9] 100 % of control

CC(=O)CCCCC(C)=O
inactive: [4] 98 % of control | [5] 101 % of control | [6] 104 % of control

S=C(NCc1ccccc1)NCc1ccccc1
inactive: [16] 94 % of control and 87 % of control | [17] 87 % of control | [18] 90 % of control

O=C1C=C2CCCC2CC1 (stereo not given)
inactive: dose: 75.0 mg/kg/injection, schedule: Q01DX001 (ip), vehicle: other 97 % of control | dose: 75.0 mg/kg/injection, schedule: Q04DX003 (ip), vehicle: other 93 % of control | dose: 150.0 mg/kg/injection, schedule: Q01DX001 (ip), vehicle: other 92 % of control | dose: 150.0 mg/kg/injection, schedule: Q04DX003 (ip), vehicle: other 98 % of control | dose: 300.0 mg/kg/injection, schedule: Q01DX001 (ip), vehicle: other 94 % of control | dose: 300.0 mg/kg/injection, schedule: Q04DX003 (ip), vehicle: other 92 % of control

Nc1ccc2c(c1)[nH]c(=O)c1cc(Br)ccc12
inactive: [10] 104 % of control | [11] 100 % of control | [12] 102 % of control

CC(C)N(C(=O)Nc1cccc(F)c1)c1ccccc1
inactive: dose: 100.0 mg/kg/injection, schedule: Q01DX009 (ip), vehicle: gum acacia 96 % of control | dose: 200.0 mg/kg/injection, schedule: Q01DX009 (ip), vehicle: gum acacia 96 % of control | dose: 400.0 mg/kg/injection, schedule: Q01DX009 (ip), vehicle: gum acacia 90 % of control

O=[N+]([O-])c1cc([N+](=O)[O-])c(Cl)s1
inactive: dose: 12.5 mg/kg/injection, schedule: Q01DX009 (ip), vehicle: saline with Tween-80 97 % of control | dose: 25.0 mg/kg/injection, schedule: Q01DX009 (ip), vehicle: saline with Tween-80 91 % of control

CCOc1ccc(/C=N/NC(=O)CCCCCCCCC(=O)N/N=C/c2ccc(OCC)c(OC)c2)cc1OC
inactive: [13] 95 % of control | [14] 88 % of control | [15] 97 % of control

CC12C=CC(CC1)C2OC(=O)c1ccccc1C(=O)O (stereo not given)
inactive: [13] 95 % of control | [7] 94 % of control | [14] 97 % of control | [8] 108 % of control | [15] 92 % of control | [9] 92 % of control

O=C1OCC/C1=C\OCCCO/C=C1\CCOC1=O
inactive: [16] 100 % of control | [17] 87 % of control | [18] 97 % of control

COc1ccc(OC)c(NC(=O)Nc2ccc(C(=O)O)cc2)c1
inactive: [13] 109 % of control | [14] 96 % of control | [15] 96 % of control
